The text below walks through data of patent US7638512B2, “Phenylaminopropanol derivatives and methods of their use” (Wyeth, priority 2004, dated 2009).

For this assay, the target named is T1, human hNET (Homo sapiens, UniProt P23975).
T1 construct: expressed in transfected cells
Nature of the assay: Norepinephrine (NE) uptake assay. It counts as cell-based. The conditions noted are these: 1 μM test compound; MDCK-Net6 cells stably transfected with human hNET; [3H]NE uptake. The method, then: MDCK-Net6 cells, stably transfected with human hNET (Pacholczyk, T., R. D. Blakely, and S. G. Amara, Nature, 1991, 350(6316): p. 350-4) were cultured in growth medium containing high glucose DMEM (Gibco, Cat. No. 11995), 10% FBS (dialyzed, heat-inactivated, US Bio-Technologies, Lot FBD1129HI) and 500 µg/ml G418 (Gibco, Cat. No. 10131). Cells were plated at 300,000/T75 flask and cells were split twice weekly. The JAR cell line (human placental choriocarcinoma) was purchased from ATCC (Cat. No. HTB-144). The cells were cultured in growth medium containing RPMI 1640 (Gibco, Cat. No. 72400), 10% FBS (Irvine, Cat. No. 3000), 1% sodium pyruvate (Gibco, Cat. No. 1136) and 0.25% glucose. Cells were plated at 250,000 cells/T75 flask and split twice weekly. For all assays, cells were plated in Wallac 96-well sterile plates (PerkinElmer, Cat. No. 3983498).
On day 1, cells were plated at 3,000 cells/well in growth medium and maintained in a cell incubator (37° C., 5% CO2). On day 2, growth medium was replaced with 200 μl of assay buffer (25 mM HEPES; 120 mM NaCl; 5 mM KCl; 2.5 mM CaCl2; 1.2 mM MgSO4; 2 mg/ml glucose (pH 7.4, 37° C.)) containing 0.2 mg/ml ascorbic acid and 10 μM pargyline. Plates containing cells with 200 μl of assay buffer were equilibrated for 10 minutes at 37° C. prior to addition of compounds. A stock solution of desipramine was prepared in DMSO (10 mM) and delivered to triplicate wells containing cells for a final test concentration of 1 μM. Data from these wells were used to define non-specific NE uptake (minimum NE uptake). Test compounds were prepared in DMSO (10 mM) and diluted in assay buffer according to test range (1 to 10,000 nM). Twenty-five microliters of assay buffer (maximum NE uptake) or test compound were added directly to triplicate wells containing cells in 200 μl of assay buffer. The cells in assay buffer with test compounds were incubated for 20 minutes at 37° C. To initiate the NE uptake, [^3H]NE diluted in assay buffer (120 nM final assay concentration) was delivered in 25 μl aliquots to each well and the plates were incubated for 5 minutes (37° C.). The reaction was terminated by decanting the supernatant from the plate. The plates containing cells were washed twice with 200 μl assay buffer (37° C.) to remove free radioligand. The plates were then inverted, left to dry for 2 minutes, then reinverted and air-dried for an additional 10 minutes. The cells were lysed in 25 μl of 0.25 N NaOH solution (4° C.), placed on a shake table and vigorously shaken for 5 minutes. After cell lysis, 75 μl of scintillation cocktail was added to each well and the plates were sealed with film tape. The plates were returned to the shake table and vigorously shaken for a minimum of 10 minutes to ensure adequate partitioning of organic and aqueous solutions. The plates were counted in a Wallac Microbeta counter (PerkinElmer) to collect the raw cpm data.
For each experiment, a data stream of cpm values collected from the Wallac Microbeta counter was downloaded to a Microsoft Excel statistical application program. Calculations of EC50 values were made using the transformed-both-sides logistic dose response program written by Wyeth Biometrics Department. The statistical program uses mean cpm values from wells representing maximum binding or uptake (assay buffer) and mean cpm values from wells representing minimum binding or uptake ((1 μM desipramine (hNET) or 1 μM paroxetine (hSERT)). Estimation of the EC50 value was completed on a log scale and the line was fit between the maximum and minimum binding or uptake values. All graphic data representation was generated by normalizing each data point to a mean percent based on the maximum and minimum binding or uptake values. The EC50 values reported from multiple experiments were calculated by pooling the raw data from each experiment and analyzing the pooled data as one experiment.

Counter-ions that a name gives are not always drawn.

T1 sequence (P23975 whole entry): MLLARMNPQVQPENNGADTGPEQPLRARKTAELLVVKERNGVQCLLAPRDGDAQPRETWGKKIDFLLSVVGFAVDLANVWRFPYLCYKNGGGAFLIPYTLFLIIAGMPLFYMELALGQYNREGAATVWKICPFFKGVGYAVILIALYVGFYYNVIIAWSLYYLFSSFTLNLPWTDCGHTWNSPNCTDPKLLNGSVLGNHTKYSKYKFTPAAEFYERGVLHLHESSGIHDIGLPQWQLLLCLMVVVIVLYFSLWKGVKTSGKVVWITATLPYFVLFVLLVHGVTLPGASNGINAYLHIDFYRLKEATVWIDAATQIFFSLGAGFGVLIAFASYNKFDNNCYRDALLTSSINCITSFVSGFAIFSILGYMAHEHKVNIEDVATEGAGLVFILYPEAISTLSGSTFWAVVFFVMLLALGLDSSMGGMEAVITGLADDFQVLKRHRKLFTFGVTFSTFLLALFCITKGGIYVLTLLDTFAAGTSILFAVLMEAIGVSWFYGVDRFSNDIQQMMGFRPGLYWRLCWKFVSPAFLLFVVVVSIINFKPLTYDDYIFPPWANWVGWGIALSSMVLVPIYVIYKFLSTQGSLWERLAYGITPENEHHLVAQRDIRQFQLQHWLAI

The term inhibition denotes the change of the read-out against control, counted positive when it falls. Low values mean a weak effect, high ones a strong effect. In turn, `CNC[C@@H](O)[C@H](c1ccccc1)N1CCOc2ccccc21` (racemic) [Example 2, (1RS,2SR)-1-(2,3-dihydro-4H-1,4-benzoxazin-4-yl)-3-(methylamino)-1-phenylpropan-2-ol dihydrochloride] had an inhibition at 1 µM of 33.7%. On to `CNC[C@@H](O)[C@H](c1ccccc1)N1CCN(C)c2ccccc21` (racemic) [Example 4, (1SR,2RS)-3-(methylamino)-1-(4-methyl-3,4-dihydroquinoxalin-1(2H)-yl)-1-phenylpropan-2-ol hydrochloride], for which at 1 µM the inhibition was 46.2%. As to `CNC[C@@H](O)[C@H](c1ccccc1)N1CCN(CC(F)(F)F)c2ccccc21` (racemic) [Example 5, (1SR,2RS)-3-(methylamino)-1-phenyl-1-[4-(2,2,2-trifluoroethyl)-3,4-dihydroquinoxalin-1(2H)-yl]propan-2-ol hydrochloride], 1 µM produced 52.9% inhibition. The compound `CNC[C@@H](O)[C@H](c1ccccc1)N1CCOc2ccc(Cl)cc21` (racemic) [Example 11, (1RS,2SR)-1-(6-chloro-2,3-dihydro-4H-1,4-benzoxazin-4-yl)-3-(methylamino)-1-phenylpropan-2-ol hydrochloride] returned an inhibition at 1 µM of 60.6%. `CNC[C@@H](O)[C@H](c1ccccc1)N1CCOc2ccc(C)cc21` (racemic) [Example 12, (1RS,2SR)-3-(methylamino)-1-(6-methyl-2,3-dihydro-4H-1,4-benzoxazin-4-yl)-1-phenylpropan-2-ol hydrochloride] returned an inhibition at 1 µM of 3.4%. As for `CNC[C@@H](O)[C@H](c1ccccc1)N1CCOc2ccc(Cl)cc21` (single isomer, unassigned) [Example 13, hydrochloride], the inhibition at 1 µM came out at 38.6%. Compound `CNC[C@H](O)[C@@H](c1ccccc1)N1CCOc2ccc(Cl)cc21` (single isomer, unassigned) [Example 14, hydrochloride] displayed an inhibition at 1 µM of 41.5%.

`CNC[C@@H](O)[C@H](c1cccc(F)c1)N1C[C@@H](c2ccccc2)Oc2ccccc21` (single isomer, unassigned) [Example 20, hydrochloride]: 1 µM produced 97.2% inhibition. `CNC[C@@H](O)[C@H](c1cccc(F)c1)N1C[C@H](c2ccccc2)Oc2ccccc21` (single isomer, unassigned) [Example 21, hydrochloride] returned an inhibition at 1 µM of 51.7%.

`CNC[C@@H](O)[C@H](c1cc(F)cc(F)c1)N1CCOc2ccc(Cl)cc21` [Example 8, (1S,2R)-1-(6-chloro-2,3-dihydro-4H-1,4-benzoxazin-4-yl)-1-(3,5-difluorophenyl)-3-(methylamino)propan-2-ol hydrochloride] came in with an inhibition at 1 µM of 12.5%. In turn, `CNC[C@@H](O)[C@H](c1cccc(F)c1)N1CC(C)Oc2ccccc21` (stereo partly drawn) [Example 9, (1S,2R)-1-(3-fluorophenyl)-3-(methylamino)-1-(2-methyl-2,3-dihydro-4H-1,4-benzoxazin-4-yl)propan-2-ol hydrochloride] displayed an inhibition at 1 µM of 53.9%. In turn, `CNC[C@@H](O)[C@H](c1cccc(F)c1)N1CCOc2ccc(Cl)cc21` [Example 15, (1S,2R)-1-(6-chloro-2,3-dihydro-4H-1,4-benzoxazin-4-yl)-1-(3-fluorophenyl)-3-(methylamino)propan-2-ol hydrochloride] had an inhibition at 1 µM of 41.4%. The result for `CNC[C@@H](O)[C@H](c1cccc(F)c1)N1CC(C)(C)Oc2ccccc21` [Example 16, (1S,2R)-1-(2,2-dimethyl-2,3-dihydro-4H-1,4-benzoxazin-4-yl)-1-(3-fluorophenyl)-3-(methylamino)propan-2-ol hydrochloride] reads 10%; that for `CNC[C@@H](O)[C@H](c1ccccc1)N1CC(C)(C)Oc2ccccc21` [Example 17, (1S,2R)-1-(2,2-dimethyl-2,3-dihydro-4H-1,4-benzoxazin-4-yl)-3-(methylamino)-1-phenylpropan-2-ol hydrochloride], 9.3%; that for `CNC[C@@H](O)[C@H](c1cccc(F)c1)N1CCSc2ccccc21` [Example 18, (1S,2R)-1-(2,3-dihydro-4H-1,4-benzothiazin-4-yl)-1-(3-fluorophenyl)-3-(methylamino)propan-2-ol hydrochloride], 90.4%. As for `CNC[C@@H](O)[C@H](c1cccc(F)c1)N1CC(c2ccccc2)Oc2ccccc21` (stereo partly drawn) [Example 19, (1S,2R)-1-(3-fluorophenyl)-3-(methylamino)-1-(2-phenyl-2,3-dihydro-4H-1,4-benzoxazin-4-yl)propan-2-ol hydrochloride], the inhibition at 1 µM came to 95%.
